In data set [1] the test system is GluR1, GluR4, synaptophysin, and synapsin II. The data set is described as follows: Synaptic marker immunoblot in hippocampal homogenates of A53T mice. It counts as in vivo, mouse. To be noted: A53T mice injected daily for 11 days. How it is done: FIG. 7. The cathepsin B modulator PADK promotes synaptic integrity in the model of early α-synucleinopathy. The A53T transgenic and wildtype (wt) mice were injected daily with PADK or vehicle for 11 days. […] Mean GluR1 immunoreactivities±SEM are shown (B); post hoc test compared to vehicle-treated transgenics: *p<0.05.
Lysosomal enhancement also promoted protein clearance and synaptic protection in the Parkinson's disease transgenic mouse model expressing mutant A53T human α-synuclein (FIG. 4E). As in the other proteinopathy models, the reduction in human α-synuclein corresponded with active CatB levels that were increased 3-6 fold in brains of the PADK-treated A53T mice. […] The A53T mice were used at 7-8 months of age and behavioral studies confirmed the early α-synucleinopathy was pre-symptomatic, although a subtle change in anxiety behavior was detected (FIG. 5). PADK-mediated cathepsin B modulation was evident throughout the CNS, and the enhanced levels of the enzyme's active form corresponded with improved clearance of α-synuclein (FIG. 6) and recovery of several synaptic markers (FIG. 7A).
(Immunoblotting shows a protein as a band on a membrane.)

Data set [2] has as its system Aβ peptide. In words: Aβ peptide in hippocampal samples of mutant human APP mice. To be noted: PADK-treated transgenic mice; correlated with augmented active CatB in brain. It is filed as in vivo, mouse. How it is done: FIG. 4. Enhancing lysosome efficiency with the cathepsin B modulator PADK leads to reductions of multiple types of proteinopathy-related accumulation events. […] Age-matched wild-type mice (wt) and 9-10-month mutant human APP mice, a model of early dementia, treated with or without PADK were assessed for the 4-kDa Δβ peptide, the active form of cathepsin B (act CB), and other proteins in hippocampal samples (C). Similar treatment groups used another APP mouse model at 20-22 months of age to measure clearance of APP carboxyterminal fragments APP-αCTF and APP-βCTF (D). Rat hippocampal slice cultures from the untreated control group (con) and slices treated with submicromolar Δβ42 (early tauopathy model) in the absence or presence of PADK (5 μM for 4 days) were assessed for phosphorylated tau (pTau) and other proteins (E). For a model of early α-synucleinopathy, human A53T α-synuclein transgenic mice, at 7 months old, were studied with or without PADK treatment and assessed for human α-synuclein (α-syn) in TX-100 extracts of hippocampus and for other proteins in hippocampal homogenates (F). Plotted data (±SEM) were compared to neighboring vehicle groups by unpaired t-tests: *p=0.02, **p<0.01, ***p<0.001. APPswind and APP-PS1 mice are described in Butler et al., (2011), the entire content of which is hereby incorporated herein by reference. […]

In data set [3] the test system is C57BL/6 mice. In words: Safety evaluation in PADK-injected C57BL/6 mice (synaptic markers, blood markers, behavior, organ histology). It counts as in vivo, mouse. How it is done:
FIG. 11. Safety evaluation of PADK found no evidence of toxicity. […] Alanine aminotransferase (ALT) and blood urea nitrogen (BUN) measures in plasma were also unchanged (E), indicating no effect on major organs. […] Organ sections were H+E stained and tissue integrity was evaluated by a pathologist that was blinded to the treatment groups (G).
Additional safety evaluation tests with PADK were conducted. […] Blood markers were also unchanged, indicating no effect on major organs (FIG. 11E).

Data set [4] addresses T1, active cathepsin (Mus musculus, UniProt P10605).
T1 construct: from tissue; host or cells: brain and CNS regions of mice (PADK-treated mice, A53T transgenic and wild-type mice, C57BL/6 mice)
The data set is described as follows: Active cathepsin in brain samples of PADK-injected C57BL/6 mice. It is filed as in vivo. To be noted: ip daily for 9 days.

Setting [5] is: C57BL/6 mice, ip daily for 9 days.

T1 sequence (P10605 80-333 limits assumed): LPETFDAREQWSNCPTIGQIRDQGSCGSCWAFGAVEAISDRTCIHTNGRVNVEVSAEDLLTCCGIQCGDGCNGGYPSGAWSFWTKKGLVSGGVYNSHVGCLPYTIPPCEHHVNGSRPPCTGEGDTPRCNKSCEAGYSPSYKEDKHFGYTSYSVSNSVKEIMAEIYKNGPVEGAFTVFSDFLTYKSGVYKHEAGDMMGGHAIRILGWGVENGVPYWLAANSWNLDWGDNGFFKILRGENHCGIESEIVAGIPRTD

In the case of `C[C@H](NC(=O)[C@H](Cc1ccccc1)NC(=O)OCc1ccccc1)C(=O)C=[N+]=[N-]` [PADK, N-carbobenzyloxy-L-phenylalanyl-L-alanyl-diazomethylketone], the “levels of synaptic markers GluR1, GluR4, synaptophysin, and synapsin II” value in data set [1] is recorded as “improved levels”. The Aβ peptide level result in data set [2] was “reductions”. Moreover, in data set [3] (setting [5]), the “Alanine aminotransferase (ALT) in plasma” value is “unchanged”, the “blood urea nitrogen (BUN) in plasma” value is “unchanged” and the synaptic markers entry was “unchanged”. In data set [3] (prior behavioral tests), the “motor coordination rotarod test” value is recorded as “no adverse effects” and the “spatial memory using conditioned place preference” value is reported as “no adverse effects”. Moreover, the “organ tissue integrity (H+E stained sections, blinded pathologist)” value in data set [3] (various organs) is “scored as normal”. Also, the “active cathepsin in brain samples” value in data set [4] is “dose-dependent increase”.

(Values after US20160136229A1, “MATERIALS FOR POSITIVE CATHEPSIN B MODULATION AND METHODS OF USE FOR TREATING MILD COGNITIVE IMPAIRMENT (MCI), EARLY DEMENTIA, A-SYNUCLEINOPATHY, TRAUMATIC BRAIN INJURY, CARDIOMYOPATHY, EYE DISEASE AND SKIN DAMAGE” (University of North Carolina at Pembroke, priority 2013, published 2016).)
